Experimental data from patent publication US11567074B2, “Methods for identifying proteins that bind ligands” (University of Pittsburgh—Of the Commonwealth System of …, priority 2016, dated 2023).
Values joined by “and” are separate entries in the source; they are usually repeats but may differ in a detail not shown here. Identical values can stand only once. “Also recorded” adds a separate entry of the source.

Assays:
[1] = biological target: T1, DRP1 (Homo sapiens, UniProt O00429); test: Western blot thermal shift (CETSA) in a2780cis lysate, DRP1; format: binding; details: 20 μM mdivi-1, a2780cis cytoplasmic lysate, 44-60° C., vs vehicle
T1 construct: Lysates of A2780cis cells were prepared identically as DISRUPT experiments outlined above; endogenous in cells; host or cells: a2780cis cells, cleared lysate
Method: (§1) Protein quantification by western blot was employed to confirm the relative abundance of DPP3 remaining in solution following treatment with mdivi-1, heating and centrifugation. Cytoplasmic lysates from a2780cis ovarian cancer cells were treated with 20 μM mdivi-1 of and heated to 44° C., 48° C., 52° C., 56° C., and 60° C., in singlicate; the western blot is shown in FIG. 9D. β-actin was used as a control blot to show an unchanging […] intensity as a function of temperature. […] DPP3 activity was measured using a polypeptide cleavage assay that measures a decrease in fluorescence due to the removal of an n-terminal bound fluorophore. Fluorescence was measured as a function of dose, as shown in FIG. 9E; the control and quench assays for the functional assay are shown in FIG. 9D.
(§2) The lysate stock was placed on ice until thawed.
(§3) Lysates of A2780cis cells were prepared identically as DISRUPT experiments outlined above. The soluble protein was separated on Tris-glycine gels (Invitrogen). The separated proteins were blotted onto a polyvinylidene difluoride (PVDF) membrane and non-specific binding was blocked overnight at 4° C. in phosphate-buffered saline containing 0.1% Tween 20 and 10% nonfat dry milk (blocking buffer). Membranes were incubated with primary antibodies, DPP3 (GeneTex), Drpl (BD Biosciences), and β-actin (Sigma-Aldrich), in blocking buffer overnight at 4° C. […]

[2] = biological target: T2, dipeptidyl peptidase 3 (DPP3) (Homo sapiens, UniProt Q9NY33); test: DISRUPT label-free differential mass spectrometry, a2780cis lysate; format: binding; details: 20 μM mdivi-1, a2780cis lysate, 56° C. for ten minutes, n=6 per condition
T2 construct: endogenous in cells; host or cells: a2780cis cells (Sigma Aldrich), cleared freeze-thaw lysate
T2 sequence (Q9NY33 1-737): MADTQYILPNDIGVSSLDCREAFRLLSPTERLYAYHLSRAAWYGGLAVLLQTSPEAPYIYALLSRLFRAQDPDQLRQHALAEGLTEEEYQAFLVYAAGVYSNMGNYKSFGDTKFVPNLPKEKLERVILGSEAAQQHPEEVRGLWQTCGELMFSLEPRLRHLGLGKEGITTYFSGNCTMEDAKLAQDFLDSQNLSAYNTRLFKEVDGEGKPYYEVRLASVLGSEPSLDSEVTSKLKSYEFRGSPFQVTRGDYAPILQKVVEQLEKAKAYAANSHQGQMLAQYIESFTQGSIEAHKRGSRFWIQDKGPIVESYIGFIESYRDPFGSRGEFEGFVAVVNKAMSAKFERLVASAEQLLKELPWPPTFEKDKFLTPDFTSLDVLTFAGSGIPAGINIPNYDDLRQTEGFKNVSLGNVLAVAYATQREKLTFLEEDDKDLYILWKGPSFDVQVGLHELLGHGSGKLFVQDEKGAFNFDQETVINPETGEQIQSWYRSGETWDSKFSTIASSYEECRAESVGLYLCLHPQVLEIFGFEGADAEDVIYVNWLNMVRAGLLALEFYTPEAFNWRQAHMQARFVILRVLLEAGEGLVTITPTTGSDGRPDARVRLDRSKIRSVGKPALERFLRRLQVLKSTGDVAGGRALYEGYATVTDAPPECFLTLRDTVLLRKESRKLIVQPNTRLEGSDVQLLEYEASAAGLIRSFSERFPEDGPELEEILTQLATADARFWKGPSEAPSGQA
Method: Equal aliquots of a2780cis cells were treated with 20 μM mdivi-1 and DMSO respectively, split into six technical replicates per condition, and heated to 56° C. for ten minutes to stimulate differential agglutination of drug-bound and unbound proteins. […] Data-dependent MS/MS data was analyzed and results in the identification of 35,369 features linked to 5488 unique peptides sequences that were associated with 947 proteins. Features […] having non-zero intensity values in at least four of six samples per condition were selected, and a Student's t-test was applied to compute a p value for each feature, and a volcano plot was created to show the distribution of features as a function of fold change and significance, as shown in the volcano plot in FIG. 7A. Two of the significant features were identified as peptide […] (SEQ ID NO: 2) deriving from dipeptidyl peptidase 3, DPP3, using MS/MS spectra acquired during the initial dMS experiment. The 6 remaining highly significant features were identified as peptides […] (SEQ ID NO: 6), […] (SEQ ID NO: 4), and […] (SEQ ID NO: 1) that are specific to the protein sequence for DPP3, using MS/MS spectra acquired in subsequent analyses.
as §2
Samples were denatured and digested utilizing the FASP method described by Wisniewski et al. (2009) and Manza et al. (2005). […]

[3] = biological target: T3, DPP3 (Homo sapiens, UniProt Q9NY33); test: DPP3 activity assay (fluorogenic polypeptide cleavage); format: biochemical; parameters: purchased BPS Bioscience 80203; details: IC50 upon DPP3 activity, purified recombinant DPP3, substrate Arg2-AMC, fluorescence as a function of dose
T3 sequence (Q9NY33 1-737): T2 sequence (Q9NY33 1-737)
Method: as §1
The inhibition of DPP3 peptidase activity by mdivi-1 was evaluated using a commercially available fluorogenic DPP3 Assay Kit (catalog number 80203, BPS Bioscience, San Diego Calif.) that contains purified recombinant DPP3 protein and DPP3 substrate Arg2-AMC. The fluorescence intensity was measured using a microplate reader, Synergy 2 (BioTek instruments).

[4] = tested on: tumor cells including cisplatin resistant ovarian cancers cells; details: wide range of tumor cells incl. cisplatin resistant ovarian cancer cells; cited from earlier work
[5] = biological target: T3, DPP3; test: Western blot thermal shift (CETSA) in a2780cis lysate, DPP3; format: binding; parameters: endogenous in cells; host or cells: a2780cis cells (Sigma Aldrich), cleared freeze-thaw lysate; details: 20 μM mdivi-1, a2780cis cytoplasmic lysate, 44-60° C., vs vehicle
Method: as §1, §2, §3

[6] = biological target: T4, β-actin (Homo sapiens, UniProt P60709); test: Western blot thermal shift (CETSA) in a2780cis lysate, β-actin control; format: binding; details: 20 μM mdivi-1, a2780cis cytoplasmic lysate, control protein
T4 construct: Lysates of A2780cis cells were prepared identically as DISRUPT experiments outlined above; endogenous in cells; host or cells: a2780cis cells, cleared lysate
Method: as §1, §2, §3

[7] = biological target: T5, Huntingtin-interacting protein K, HYPK (Homo sapiens, UniProt Q9NX55); test: DISRUPT label-free differential mass spectrometry, K562 lysate, HYPK; format: binding; details: 2 μM staurosporine, 56° C. for ten minutes, n=10 per condition
T5 construct: endogenous in cells; host or cells: K562 cells (ATCC), cleared lysate in kinase buffer
T5 sequence (Q9NX55 1-121): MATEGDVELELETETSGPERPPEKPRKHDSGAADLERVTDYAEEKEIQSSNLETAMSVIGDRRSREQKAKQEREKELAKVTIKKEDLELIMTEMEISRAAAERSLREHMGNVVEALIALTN
Method: Samples were heated to 56° C. for ten minutes to stimulate protein agglutination (protein clumping) and agglutinated proteins were removed from solution by centrifugation at 20,000 g.
To measure the relative abundance of proteins in solution, lysates were subjected to tryptic digestion, desalting and quantitative proteomic analysis. Peptide samples were separated by reversed phase C18 nanoflow liquid chromatography (nLC), ionized by electrospray ionization, and analyzed with a hybrid ion trap/high-resolution Fourier transform mass spectrometer. […] To enhance the quantification of the vast number of molecular features present in high-resolution data, the acquisition of full-scan MS spectra were prioritized over the collection of MS/MS spectra that are used for peptide identification, resulting in approximately 10 quantitative measurements per chromatographic peak.
Samples were analyzed in a balanced run order to compensate for drifts in mass spectrometry response that occurs as a function of time. Each sample was analyzed once and the resulting data file was uploaded to a cloud-based data analysis platform, CHORUS (www.chorusproject.org), that was developed to support the efficient analysis of high-resolution mass spectrometry data. Label-free differential mass spectrometry (dMS) was used to quantify hundreds of thousands of features detected by nLC-MS analysis. […]

T1 sequence (O00429 whole entry): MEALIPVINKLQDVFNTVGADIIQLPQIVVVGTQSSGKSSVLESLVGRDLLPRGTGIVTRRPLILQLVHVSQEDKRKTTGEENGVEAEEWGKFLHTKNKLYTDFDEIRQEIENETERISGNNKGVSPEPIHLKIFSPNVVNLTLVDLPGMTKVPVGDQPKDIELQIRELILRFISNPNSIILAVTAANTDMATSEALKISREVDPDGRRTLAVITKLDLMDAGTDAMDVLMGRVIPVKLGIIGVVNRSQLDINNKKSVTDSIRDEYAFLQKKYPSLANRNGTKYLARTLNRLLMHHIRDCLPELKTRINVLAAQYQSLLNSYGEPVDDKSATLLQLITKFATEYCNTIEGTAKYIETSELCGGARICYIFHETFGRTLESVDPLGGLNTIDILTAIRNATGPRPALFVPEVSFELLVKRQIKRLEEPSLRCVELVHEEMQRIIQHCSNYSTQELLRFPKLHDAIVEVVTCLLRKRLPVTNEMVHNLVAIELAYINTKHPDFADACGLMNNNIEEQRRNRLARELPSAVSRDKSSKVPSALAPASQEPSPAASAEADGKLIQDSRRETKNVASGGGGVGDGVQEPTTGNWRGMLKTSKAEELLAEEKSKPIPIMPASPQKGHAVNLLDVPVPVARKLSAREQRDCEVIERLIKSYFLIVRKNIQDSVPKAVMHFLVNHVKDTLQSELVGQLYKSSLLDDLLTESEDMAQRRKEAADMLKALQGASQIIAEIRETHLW

Structure (SMILES)	thermal shift of DRP1 (western blot) [1]	DISRUPT ranking / significant features of DPP3 [2]	IC50 [3]	killing of tumor cells [4]	thermal shift of DPP3 (protein remaining in solution, western blot) [5]	thermal shift of β-actin (western blot) [6]	peptides identified among the 15 highly significant features (p<0.0001), HYPK [7]
COc1cc(-n2c(S)nc3ccccc3c2=O)c(Cl)cc1Cl [mdivi-1]	no evidence of a thermal shift; also recorded: no shifts were observed	eight DPP3 peptides from 18 features were significant; also recorded: top putative target	~70 nM and 70 nM	robust killing	remained in solution at 52 °C and 56 °C at higher levels compared to vehicle treated controls; also recorded: a strong shift was seen for DPP3	no shifts were observed	–
CN[C@@H]1C[C@H]2O[C@@](C)([C@@H]1OC)n1c3ccccc3c3c4c(c5c6ccccc6n2c5c31)C(=O)NC4 [staurosporine]	–	–	–	–	–	–	one peptide
